# Test system: brain activity (BOLD signal)
# Assay: pharmaco-MRI (BOLD) neuroimaging study in conscious rats
# Type: in vivo, rat
# Conditions: for median number of positive voxels (positive BOLD volume of activation): 20-30 min post injection
# Method: Test Substance, Reference Substance(s), and Vehicle: the compound of example 1 test substance for dose-dependent change in BOLD signal was provided by Syndesi along with the formula for the vehicle.
# Subjects: Forty-eight male Sprague Dawley rats weighing ca 275-300 g were obtained from Charles River Laboratories (Wilmington, MA, USA). Rat were maintained on a 12:12 hour light:dark cycle with a lights on at 0700 hours and allowed access to food and water ad libitum. All rats were acquired and cared for in accordance with the guidelines published in the Guide for the Care and Use of Laboratory Animals (National Institutes of Health Publications No. 85-23, Revised 1985) and adhered to the National Institutes of Health and the American Association for Laboratory Animal Science guidelines.
# Acclimation: To reduce the stress associated with head restraint, rats were acclimated to the restraining system (head holder and body tube) one week prior to their actual imaging session. The design of the restraining system (Animal Imaging Research, Holden MA, USA) included a padded head support obviating the need for ear bars helping to reduce animal discomfort while minimizing motion artifact. These acclimation sessions were run each day for 4-5 consecutive days. Rats were briefly anesthetized with 2-3% isoflurane while being secured into the head holder. The forepaws were secured with tape. When fully conscious, the imaging system is placed into a black opaque box “mock scanner” for 30 min with a tape-recording of the MRI pulse sequence to simulate the bore of the magnet and the imaging protocol. A significant decline in respiration, heart rate, motor movements, and plasma corticosterone has been measured when the first and last acclimation periods are compared (King et al., 2005). The reduction in autonomic and somatic measures of arousal and stress improve the signal resolution and quality of the images.
# Image Acquisition: Animals were scanned at 300 MHz using a quadrature transmit/receive volume coil built into the rat head holder and restraining system for awake animal imaging (Animal Imaging Research, Holden, MA, USA). The design of the coil provided complete coverage of the brain from olfactory bulbs to brain stem with excellent B1 field homogeneity. Experiments were conducted using a Bruker Biospec 7.0 T/20-cm USR horizontal magnet (Bruker, Billerica, MA, USA) and a 20-G/cm magnetic field gradient insert (ID=12 cm) capable of a 120-μs rise time. At the beginning of each imaging session, a high-resolution anatomical data set was collected using the RARE pulse sequence [22 slice; 1.0 mm; field of view (FOV) 3.0 cm; matrix size 256×256; repetition time (TR) 2.5 s; echo time (TE) 12 ms; NEX 2; 3 min acquisition time]. Functional images were acquired using a multi-slice half-Fourier acquisition single-shot turbo spin echo (HASTE) pulse sequence. Bruker Paravision automatically finds the basic frequency, shims, power requirements for 90° and 180° pulses and sets the receiver gain. A single scanning session acquired 22 slices, 1.0 mm thick, every 6.0 s (TR), using an effective TE of 48 ms, FOV 3.0 cm, matrix size 96×96, NEX 1, and repeated 450 times for a total scanning time of 45 min. The in-plane pixel resolution was 312 μm2.
# Data Processing: Data are coregistered to a mean functional image using SPM8's coregistrational code with the following parameters: Quality: 0.97, Smoothing: 0.35 mm, Separation: 0.5 mm. Gaussian smoothing was performed with a FWHM of 0.8 mm. Images were aligned and registered to the 3D rat brain atlas, segmented and labeled with 171 discrete anatomical regions. The alignment process was facilitated by an interactive graphic user interface. The registration process involved translation, rotation and scaling independently and in all three dimensions. Matrices that transformed each subject's anatomy were used to embed each slice within the atlas. […]
smiles,measurement,setting,value
"O=C1C[C@H](c2cc(F)c(F)c(F)c2)CN1Cn1ncnc1Cl [compound of example 1, (4R)-1-[(5-chloro-1H-1,2,4-triazol-1-yl)methyl]-4-(3,4,5-trifluorophenyl)pyrrolidin-2-one]",median number of positive voxels (positive BOLD volume of activation),"lateral posterior thalamic nucleus, 0.1 mg/kg i.p.",11
same,median number of positive voxels (positive BOLD volume of activation),"lateral posterior thalamic nucleus, 0.3 mg/kg i.p.",3
same,median number of positive voxels (positive BOLD volume of activation),"lateral posterior thalamic nucleus, 1.0 mg/kg i.p.",0
same,median number of positive voxels (positive BOLD volume of activation),"lateral preoptic area, 0.1 mg/kg i.p.",12
same,median number of positive voxels (positive BOLD volume of activation),"lateral preoptic area, 0.3 mg/kg i.p.",3
same,median number of positive voxels (positive BOLD volume of activation),"lateral preoptic area, 1.0 mg/kg i.p.",0
same,median number of positive voxels (positive BOLD volume of activation),"lateral septal nucleus, 0.1 mg/kg i.p.",34
same,median number of positive voxels (positive BOLD volume of activation),"lateral septal nucleus, 0.3 mg/kg i.p.",35
same,median number of positive voxels (positive BOLD volume of activation),"lateral septal nucleus, 1.0 mg/kg i.p.",4
same,median number of positive voxels (positive BOLD volume of activation),"paraventricular nucleus (first entry, P 0.003), 0.1 mg/kg i.p.",4
same,median number of positive voxels (positive BOLD volume of activation),"paraventricular nucleus (first entry, P 0.003), 0.3 mg/kg i.p.",5
same,median number of positive voxels (positive BOLD volume of activation),"paraventricular nucleus (first entry, P 0.003), 1.0 mg/kg i.p.",0
same,median number of positive voxels (positive BOLD volume of activation),"prelimbic ctx, 0.1 mg/kg i.p.",50
same,median number of positive voxels (positive BOLD volume of activation),"prelimbic ctx, 0.3 mg/kg i.p.",32
same,median number of positive voxels (positive BOLD volume of activation),"prelimbic ctx, 1.0 mg/kg i.p.",4
same,median number of positive voxels (positive BOLD volume of activation),"reticular nucleus midbrain, 0.1 mg/kg i.p.",19
same,median number of positive voxels (positive BOLD volume of activation),"reticular nucleus midbrain, 0.3 mg/kg i.p.",18
same,median number of positive voxels (positive BOLD volume of activation),"reticular nucleus midbrain, 1.0 mg/kg i.p.",1
same,median number of positive voxels (positive BOLD volume of activation),"retrosplenial caudal ctx, 0.1 mg/kg i.p.",43
same,median number of positive voxels (positive BOLD volume of activation),"retrosplenial caudal ctx, 0.3 mg/kg i.p.",27
same,median number of positive voxels (positive BOLD volume of activation),"retrosplenial caudal ctx, 1.0 mg/kg i.p.",0
same,median number of positive voxels (positive BOLD volume of activation),"subiculum dorsal, 0.1 mg/kg i.p.",13
same,median number of positive voxels (positive BOLD volume of activation),"subiculum dorsal, 0.3 mg/kg i.p.",12
same,median number of positive voxels (positive BOLD volume of activation),"subiculum dorsal, 1.0 mg/kg i.p.",0
same,median number of positive voxels (positive BOLD volume of activation),"substantia nigra reticularis, 0.1 mg/kg i.p.",19
same,median number of positive voxels (positive BOLD volume of activation),"substantia nigra reticularis, 0.3 mg/kg i.p.",22
same,median number of positive voxels (positive BOLD volume of activation),"substantia nigra reticularis, 1.0 mg/kg i.p.",2
same,median number of positive voxels (positive BOLD volume of activation),"triangular septal nucleus, 0.1 mg/kg i.p.",4
same,median number of positive voxels (positive BOLD volume of activation),"triangular septal nucleus, 0.3 mg/kg i.p.",1
same,median number of positive voxels (positive BOLD volume of activation),"triangular septal nucleus, 1.0 mg/kg i.p.",0
same,brain areas significantly affected by the four treatments,"vehicle, 0.1, 0.3, 1.0 mg/kg, of 171 brain regions",71/171
same,median number of positive voxels (positive BOLD volume of activation),"ventral lateral striatum, 0.1 mg/kg i.p.",82
same,median number of positive voxels (positive BOLD volume of activation),"ventral lateral striatum, 0.3 mg/kg i.p.",1
same,median number of positive voxels (positive BOLD volume of activation),"ventral lateral striatum, 1.0 mg/kg i.p.",0
same,median number of positive voxels (positive BOLD volume of activation),"ventral medial striatum, 0.1 mg/kg i.p.",47
same,median number of positive voxels (positive BOLD volume of activation),"ventral medial striatum, 0.3 mg/kg i.p.",18
same,median number of positive voxels (positive BOLD volume of activation),"ventral medial striatum, 1.0 mg/kg i.p.",0
same,median number of positive voxels (positive BOLD volume of activation),"ventral orbital ctx, 0.1 mg/kg i.p.",19
same,median number of positive voxels (positive BOLD volume of activation),"ventral orbital ctx, 0.3 mg/kg i.p.",4
same,median number of positive voxels (positive BOLD volume of activation),"ventral orbital ctx, 1.0 mg/kg i.p.",1
same,median number of positive voxels (positive BOLD volume of activation),"ventral subiculum, 0.1 mg/kg i.p.",26
same,median number of positive voxels (positive BOLD volume of activation),"ventral subiculum, 0.3 mg/kg i.p.",25
same,median number of positive voxels (positive BOLD volume of activation),"ventral subiculum, 1.0 mg/kg i.p.",3
same,median number of positive voxels (positive BOLD volume of activation),"ventral tegmental area, 0.1 mg/kg i.p.",8
same,median number of positive voxels (positive BOLD volume of activation),"ventral tegmental area, 0.3 mg/kg i.p.",5
same,median number of positive voxels (positive BOLD volume of activation),"ventral tegmental area, 1.0 mg/kg i.p.",0
same,median number of positive voxels (positive BOLD volume of activation),"visual 1 ctx, 0.1 mg/kg i.p.",27
same,median number of positive voxels (positive BOLD volume of activation),"visual 1 ctx, 0.3 mg/kg i.p.",21
same,median number of positive voxels (positive BOLD volume of activation),"visual 1 ctx, 1.0 mg/kg i.p.",0
same,median number of positive voxels (positive BOLD volume of activation),"zona incerta, 0.1 mg/kg i.p.",9
same,median number of positive voxels (positive BOLD volume of activation),"zona incerta, 0.3 mg/kg i.p.",3
same,median number of positive voxels (positive BOLD volume of activation),"zona incerta, 1.0 mg/kg i.p.",0
